# In article PMC5578999, “Novel quinolone chalcones targeting colchicine-binding pocket kill multidrug-resistant cancer cells by inhibiting tubulin activity and MRP1 function” (Scientific Reports, 2017):
# Key:
# Experiment in all cases: NCI-60 SRB screen
# Format in all cases: cell-based
# EKVX = test system: EKVX
# OVCAR-3 = test system: OVCAR-3
# RXF 393 = test system: RXF 393
# MDA-MB-435 = test system: MDA-MB-435
# NCI-H460 = test system: NCI-H460
# 786-0 = test system: 786-0
# HCC-2998 = test system: HCC-2998
# A549/ATCC = test system: A549/ATCC
# [1] = Homo sapiens, read-out: LC50 (the source's name)
smiles,measurement,setting,value
"COc1ccc2[nH]c(=O)c(/C=C/C(=O)c3ccccc3OC)cc2c1 [CTR-20, (E)-6-Methoxy-3-(3-(2-methoxyphenyl)-3-oxoprop-1-enyl) quinolin-2(1H)-one]",Log10GI50,EKVX,-5.69 Molar
same,Log10LC50,EKVX,-4.25 Molar
same,Log10TGI,EKVX,-4.98 Molar
same,TGI,EKVX,1.05E-5 Molar
same,Growth Percent,EKVX; 1.00E-5 Molar,37.76%
same,GI50,EKVX; Homo sapiens,2.05 µM
same,CC50,EKVX; [1],55.8 µM
same,Percent Growth,EKVX; Log10 Concentration -4.0,-67%
same,Percent Growth,EKVX; Log10 Concentration -5.0,1%
same,Percent Growth,EKVX; Log10 Concentration -6.0,72%
same,Percent Growth,EKVX; Log10 Concentration -7.0,91%
same,Percent Growth,EKVX; Log10 Concentration -8.0,86%
same,Log10GI50,OVCAR-3,-6.44 Molar
same,Log10LC50,OVCAR-3,-5.03 Molar
same,Log10TGI,OVCAR-3,-5.78 Molar
same,TGI,OVCAR-3,1.64E-6 Molar
same,Growth Percent,OVCAR-3; 1.00E-5 Molar,8.25%
same,GI50,OVCAR-3; Homo sapiens,0.359 µM
same,CC50,OVCAR-3; [1],9.33 µM
same,Percent Growth,OVCAR-3; Log10 Concentration -4.0,-96%
same,Percent Growth,OVCAR-3; Log10 Concentration -5.0,-52%
same,Percent Growth,OVCAR-3; Log10 Concentration -6.0,14%
same,Percent Growth,OVCAR-3; Log10 Concentration -7.0,95%
same,Percent Growth,OVCAR-3; Log10 Concentration -8.0,102%
same,Log10GI50,RXF 393,-5.99 Molar
same,Log10LC50,RXF 393,-5.19 Molar
same,Log10TGI,RXF 393,-5.59 Molar
same,TGI,RXF 393,2.57E-6 Molar
same,Growth Percent,RXF 393; 1.00E-5 Molar,-7.90%
same,GI50,RXF 393; Homo sapiens,1.02 µM
same,CC50,RXF 393; [1],6.48 µM
same,Percent Growth,RXF 393; Log10 Concentration -4.0,-98%
same,Percent Growth,RXF 393; Log10 Concentration -5.0,-74%
same,Percent Growth,RXF 393; Log10 Concentration -6.0,51%
same,Percent Growth,RXF 393; Log10 Concentration -7.0,99%
same,Percent Growth,RXF 393; Log10 Concentration -8.0,99%
same,Log10GI50,MDA-MB-435,-7.25 Molar
same,Log10LC50,MDA-MB-435,-4.66 Molar
same,Log10TGI,MDA-MB-435,-6.56 Molar
same,TGI,MDA-MB-435,2.75E-7 Molar
same,Growth Percent,MDA-MB-435; 1.00E-5 Molar,-10.05%
same,GI50,MDA-MB-435; Homo sapiens,0.0564 µM
same,CC50,MDA-MB-435; [1],21.9 µM
same,Percent Growth,MDA-MB-435; Log10 Concentration -4.0,-97%
same,Percent Growth,MDA-MB-435; Log10 Concentration -5.0,-26%
same,Percent Growth,MDA-MB-435; Log10 Concentration -6.0,-46%
same,Percent Growth,MDA-MB-435; Log10 Concentration -7.0,36%
same,Percent Growth,MDA-MB-435; Log10 Concentration -8.0,92%
same,Log10GI50,NCI-H460,-6.42 Molar
same,Log10LC50,NCI-H460,-4.44 Molar
same,Log10TGI,NCI-H460,-5.65 Molar
same,TGI,NCI-H460,2.25E-6 Molar
same,Growth Percent,NCI-H460; 1.00E-5 Molar,1.79%
same,GI50,NCI-H460; Homo sapiens,0.38 µM
same,CC50,NCI-H460; [1],36.7 µM
same,Percent Growth,NCI-H460; Log10 Concentration -4.0,-71%
same,Percent Growth,NCI-H460; Log10 Concentration -5.0,-22%
same,Percent Growth,NCI-H460; Log10 Concentration -6.0,12%
same,Percent Growth,NCI-H460; Log10 Concentration -7.0,102%
same,Percent Growth,NCI-H460; Log10 Concentration -8.0,105%
same,Log10GI50,786-0,-6.42 Molar
same,Log10LC50,786-0,-5.29 Molar
same,Log10TGI,786-0,-5.81 Molar
same,TGI,786-0,1.56E-6 Molar
same,Growth Percent,786-0; 1.00E-5 Molar,8.21%
same,GI50,786-0; Homo sapiens,0.378 µM
same,CC50,786-0; [1],5.11 µM
same,Percent Growth,786-0; Log10 Concentration -4.0,-97%
same,Percent Growth,786-0; Log10 Concentration -5.0,-78%
same,Percent Growth,786-0; Log10 Concentration -6.0,19%
same,Percent Growth,786-0; Log10 Concentration -7.0,93%
same,Percent Growth,786-0; Log10 Concentration -8.0,91%
same,Log10GI50,HCC-2998,-5.80 Molar
same,Log10LC50,HCC-2998,-5.23 Molar
same,Log10TGI,HCC-2998,-5.52 Molar
same,TGI,HCC-2998,3.03E-6 Molar
same,Growth Percent,HCC-2998; 1.00E-5 Molar,23.11%
same,GI50,HCC-2998; Homo sapiens,1.57 µM
same,CC50,HCC-2998; [1],5.85 µM
same,Percent Growth,HCC-2998; Log10 Concentration -4.0,-91%
same,Percent Growth,HCC-2998; Log10 Concentration -5.0,-91%
same,Percent Growth,HCC-2998; Log10 Concentration -6.0,84%
same,Percent Growth,HCC-2998; Log10 Concentration -7.0,97%
same,Percent Growth,HCC-2998; Log10 Concentration -8.0,99%
same,Log10GI50,A549/ATCC,-5.68 Molar
same,Log10LC50,A549/ATCC,-4.42 Molar
same,Log10TGI,A549/ATCC,-4.98 Molar
same,TGI,A549/ATCC,1.04E-5 Molar
same,Growth Percent,A549/ATCC; 1.00E-5 Molar,10.42%
same,GI50,A549/ATCC; Homo sapiens,2.09 µM
same,CC50,A549/ATCC; [1],37.9 µM
same,Percent Growth,A549/ATCC; Log10 Concentration -4.0,-88%
same,Percent Growth,A549/ATCC; Log10 Concentration -5.0,2%
same,Percent Growth,A549/ATCC; Log10 Concentration -6.0,73%
same,Percent Growth,A549/ATCC; Log10 Concentration -7.0,114%
same,Percent Growth,A549/ATCC; Log10 Concentration -8.0,106%
